Test results taken from PubChem BioAssay AID1259407 (Chemical Carcinogenesis Research Information System (CCRIS), 2018).
Calls of active or inactive are those of the source. The rule behind the calls is not given here.

Test system: CCRIS mutagenicity, Ames/micronucleus/aberration tests
Test: CCRIS mutagenicity studies
Conditions: Test System: AMES SALMONELLA TYPHIMURIUM
[1] = Strain/Indicator: TA1535, Metabolic Activation: NONE, Method: PREINCUBATION
[2] = Strain/Indicator: TA1537, Metabolic Activation: NONE, Method: PREINCUBATION
[3] = Strain/Indicator: TA1538, Metabolic Activation: NONE, Method: PREINCUBATION
[4] = Strain/Indicator: TA100, Metabolic Activation: NONE, Method: PREINCUBATION

C[n+]1c2ccccc2cc2cc(N)ccc21 was tested, and the mutagenic call [1] was “inactive; negative”, the mutagenic call (Strain/Indicator: TA1535, Metabolic Activation: RAT, LIVER, S-9, TETRACHLOROBIPHENYL, Method: PREINCUBATION) was “inactive; negative” and the mutagenic call [2] was “active; positive”. The mutagenic call (Strain/Indicator: TA1537, Metabolic Activation: RAT, LIVER, S-9, TETRACHLOROBIPHENYL, Method: PREINCUBATION) was “active; positive”, the mutagenic call [3] was “active; positive” and the mutagenic call (Strain/Indicator: TA1538, Metabolic Activation: RAT, LIVER, S-9, TETRACHLOROBIPHENYL, Method: PREINCUBATION) was “active; positive”. For the same molecule, the mutagenic call (Strain/Indicator: TA1977, Metabolic Activation: NONE, Method: PREINCUBATION) was “active; positive”, the mutagenic call (Strain/Indicator: TA1977, Metabolic Activation: RAT, LIVER, S-9, TETRACHLOROBIPHENYL, Method: PREINCUBATION) was “active; positive” and the mutagenic call (Strain/Indicator: TA1978, Metabolic Activation: NONE, Method: PREINCUBATION) was “active; positive”. For the same molecule, the mutagenic call (Strain/Indicator: TA1978, Metabolic Activation: RAT, LIVER, S-9, TETRACHLOROBIPHENYL, Method: PREINCUBATION) was “active; positive”.

In the case of C=CC(=O)OCCCCCC, the mutagenic call (Strain/Indicator: TA98, Metabolic Activation: NONE, Method: STANDARD PLATE) is reported as “inactive; negative”, the mutagenic call (Strain/Indicator: TA98, Metabolic Activation: RAT, LIVER, S-9, AROCLOR 1254, Method: STANDARD PLATE) is reported as “inactive; negative” and the mutagenic call (Strain/Indicator: TA98, Metabolic Activation: RAT, LIVER, S-9, SODIUM PHENOBARBITAL, Method: STANDARD PLATE) is reported as “inactive; negative”. For the same molecule, the mutagenic call [4] was “inactive; negative”, the mutagenic call (Strain/Indicator: TA100, Metabolic Activation: NONE, Method: STANDARD PLATE) was “inactive; negative” and the mutagenic call (Strain/Indicator: TA100, Metabolic Activation: RAT, LIVER, S-9, AROCLOR 1254, Method: PREINCUBATION) was “inactive; negative”. For the same molecule, the mutagenic call (Strain/Indicator: TA100, Metabolic Activation: RAT, LIVER, S-9, AROCLOR 1254, Method: STANDARD PLATE) was “inactive; negative”, the mutagenic call (Strain/Indicator: TA100, Metabolic Activation: RAT, LIVER, S-9, SODIUM PHENOBARBITAL, Method: STANDARD PLATE) was “inactive; negative” and the mutagenic call (Strain/Indicator: TA1535, Metabolic Activation: NONE, Method: STANDARD PLATE) was “inactive; negative”. The mutagenic call (Strain/Indicator: TA1535, Metabolic Activation: RAT, LIVER, S-9, AROCLOR 1254, Method: STANDARD PLATE) was “inactive; negative”, the mutagenic call (Strain/Indicator: TA1535, Metabolic Activation: RAT, LIVER, S-9, SODIUM PHENOBARBITAL, Method: STANDARD PLATE) was “inactive; negative” and the mutagenic call (Strain/Indicator: TA1537, Metabolic Activation: NONE, Method: STANDARD PLATE) was “inactive; negative”. The mutagenic call (Strain/Indicator: TA1537, Metabolic Activation: RAT, LIVER, S-9, AROCLOR 1254, Method: STANDARD PLATE) was “inactive; negative”, the mutagenic call (Strain/Indicator: TA1537, Metabolic Activation: RAT, LIVER, S-9, SODIUM PHENOBARBITAL, Method: STANDARD PLATE) was “inactive; negative” and the mutagenic call (Strain/Indicator: TA1538, Metabolic Activation: NONE, Method: STANDARD PLATE) was “inactive; negative”. The mutagenic call (Strain/Indicator: TA1538, Metabolic Activation: RAT, LIVER, S-9, AROCLOR 1254, Method: STANDARD PLATE) was “inactive; negative” and the mutagenic call (Strain/Indicator: TA1538, Metabolic Activation: RAT, LIVER, S-9, SODIUM PHENOBARBITAL, Method: STANDARD PLATE) was “inactive; negative”.

With O=[N+]([O-])CCO the mutagenic call (Strain/Indicator: TA97, Metabolic Activation: HAMSTER, LIVER, S-9, AROCLOR 1254 (5 OR 30%), Method: PREINCUBATION) was “inactive; negative”, the mutagenic call (Strain/Indicator: TA97, Metabolic Activation: HAMSTER, LIVER, S-9, AROCLOR 1254 (10%), Method: PREINCUBATION) was “inactive; negative” and the mutagenic call (Strain/Indicator: TA97, Metabolic Activation: NONE, Method: PREINCUBATION) was “inactive; negative”. The mutagenic call (Strain/Indicator: TA97, Metabolic Activation: RAT, LIVER, S-9, AROCLOR 1254 (5 OR 30%), Method: PREINCUBATION) was “inactive; negative”, the mutagenic call (Strain/Indicator: TA97, Metabolic Activation: RAT, LIVER, S-9, AROCLOR 1254 (10%), Method: PREINCUBATION) was “inactive; negative” and the mutagenic call (Strain/Indicator: TA98, Metabolic Activation: HAMSTER, LIVER, S-9, AROCLOR 1254 (10%), Method: PREINCUBATION) was “inactive; negative”. For the same molecule, the mutagenic call (Strain/Indicator: TA98, Metabolic Activation: RAT, LIVER, S-9, AROCLOR 1254 (10%), Method: PREINCUBATION) was “inactive; negative”, the mutagenic call (Strain/Indicator: TA100, Metabolic Activation: HAMSTER, LIVER, S-9, AROCLOR 1254 (10%), Method: PREINCUBATION) was “inactive; negative” and the mutagenic call (Strain/Indicator: TA100, Metabolic Activation: HAMSTER, LIVER, S-9, AROCLOR 1254 (30%), Method: PREINCUBATION) was “inactive; negative”. For the same molecule, the mutagenic call [4] was “inactive; negative”, the mutagenic call (Strain/Indicator: TA100, Metabolic Activation: RAT, LIVER, S-9, AROCLOR 1254 (10%), Method: PREINCUBATION) was “inactive; negative” and the mutagenic call (Strain/Indicator: TA100, Metabolic Activation: RAT, LIVER, S-9, AROCLOR 1254 (30%), Method: PREINCUBATION) was “inactive; negative”. The mutagenic call (Strain/Indicator: TA1535, Metabolic Activation: HAMSTER, LIVER, S-9, AROCLOR 1254 (10%), Method: PREINCUBATION) was “inactive; negative”, the mutagenic call (Strain/Indicator: TA1535, Metabolic Activation: HAMSTER, LIVER, S-9, AROCLOR 1254 (30%), Method: PREINCUBATION) was “inactive; negative” and the mutagenic call [1] was “inactive; negative”. For the same molecule, the mutagenic call (Strain/Indicator: TA1535, Metabolic Activation: RAT, LIVER, S-9, AROCLOR 1254 (10%), Method: PREINCUBATION) was “inactive; negative”, the mutagenic call (Strain/Indicator: TA1535, Metabolic Activation: RAT, LIVER, S-9, AROCLOR 1254 (30%), Method: PREINCUBATION) was “inactive; negative” and the mutagenic call (Strain/Indicator: TA1537, Metabolic Activation: HAMSTER, LIVER, S-9, AROCLOR 1254 (10%), Method: PREINCUBATION) was “inactive; negative”. The mutagenic call [2] was “inactive; negative”, the mutagenic call (Strain/Indicator: TA1537, Metabolic Activation: RAT, LIVER, S-9, AROCLOR 1254 (10%), Method: PREINCUBATION) was “inactive; negative” and the mutagenic call (Strain/Indicator: TA1538, Metabolic Activation: HAMSTER, LIVER, S-9, AROCLOR 1254 (30%), Method: PREINCUBATION) was “active; positive”. The mutagenic call [3] was “active; positive” and the mutagenic call (Strain/Indicator: TA1538, Metabolic Activation: RAT, LIVER, S-9, AROCLOR 1254 (30%), Method: PREINCUBATION) was “active; positive”.
